According to US7943338B2, “Autoimmune conditions and NADPH oxidase defects” (Arexis AB, priority 2002, dated 2011):
Entries after “also recorded” stand apart in the source; their conditions may differ.

Experiments:
DA rats = assay: Treatment of hexadecane-induced arthritis with hexadecene; assay type: in vivo, Rat (Rattus norvegicus)
Experimental: Groups of DA rats were injected i.d. at the base of the tail as follows: • Hexadecane 200 μL day 0; • Hexadecene 200 μL day 0; • Hexadecene 200 μL day −5, Hexadecane 200 μL day 0; • Olive oil 200 μL day −5, Hexadecane 200 μL day 0; • Hexadecene 200 μL day +5, Hexadecane 200 μL day 0; and • Olive oil day 200 μL +5, Hexadecane 200 μL day 0.
The rats were scored as indicated above. Olive oil was used as a control.

[1] = Lymph node distribution of 14C-hexadecane after hexadecene at day -5; assay type: in vivo, Rat (Rattus norvegicus); conditions: hexadecene 0, 50, 100 or 200 μL day -5; 14C-hexadecane day 0; day 10
Experimental: An experiment was performed to determine if oils compete for available space in the lymph nodes and if such a competition was the reason for the preventive effects of pre-treatment with hexadecene and undecane. At day −5, DA rats were injected with one of the following amounts of hexadecene: 0 μL, 50 μL, 100 μL, or 200 μL. At day 0, all rats were injected intradermally with 14C-hexadecane at the base of the tail. At day 10, the rats were sacrificed and the lymph nodes were collected and placed in PBS, homogenized, and frozen. 1 mL of the homogenate was then transferred to Ready Safe (Beckman) and analysed in a β-counter (Beckman).

[2] = in vivo; cited from earlier work

hexadecene
arthritis-inducing capacity (DA rats; 200 μL i.d. day 0 alone, FIG. 12, p<0.05 hexadecane vs hexadecene): does not | development of hexadecane induced arthritis (DA rats; hexadecene 200 μL i.d. day -5 or day +5, hexadecane day 0): None of the rats treated with hexadecene developed arthritis; also recorded: None of the rats treated with hexadecene showed any symptoms of arthritis | difference in arthritis scores vs control rats (DA rats; hexadecene day -5 and day +5, p<0.05): significant | amount of hexadecane in draining lymph nodes [1]: not affected | arthritis induction [2]: do not
